Laboratory results: publication PMC5727260, “The Sam-Sam interaction between Ship2 and the EphA2 receptor: design and analysis of peptide inhibitors” (Scientific Reports, 2017)
Positions of bridges follow the written chain, without caps; N, C: chain ends. Residues, ends and D or L forms follow the SMILES beside them. Chains are numbered I, II in the order given.

What was measured:
[1] = biological target: T1, Ship2-Sam (Homo sapiens, UniProt O15357); assay: SPR binding of peptides to immobilized Ship2-Sam; settings: for SPR binding to Ship2-Sam (RUmax): RUmax at 30 and 100 µM peptide, normalized for molecular weight
T1 construct: Its C-terminal sterile alpha motif domain (Ship2-Sam); made in house; host or cells: E. coli
T1 sequence (O15357 1196-1258 limits assumed): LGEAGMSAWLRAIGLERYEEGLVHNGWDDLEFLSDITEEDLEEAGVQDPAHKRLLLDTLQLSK
Protocol: In order to investigate the interaction with Ship2-Sam, all peptides were analysed by SPR experiments (Figs 2, 3 and S5).
SPR experiments were conducted as previously reported.
SPR assays were conducted with the following parameters: (i) flow: 20 μL/min, (ii) contact time: 4.5 min; (iii) running buffer: HBS (HEPES (10 mM), NaCl (150 mM), EDTA (3 mM), pH 7.4).
Reference channel signals were subtracted as blanks and the software BIAevaluation (version 4.1, GE Healthcare) was employed to estimate kinetic and thermodynamic parameters of the complexes.

[2] = biological target: EphA2 SAM (Homo sapiens) (UniProt P29317); assay: ITC; settings: cited from earlier work
Sequence of EphA2 SAM (Homo sapiens) (P29317 901-971): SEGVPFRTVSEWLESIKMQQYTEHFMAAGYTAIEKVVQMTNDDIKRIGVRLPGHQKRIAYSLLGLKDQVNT

CC[C@H](C)[C@H](NC(=O)[C@H](CCCNC(=N)N)NC(=O)[C@H](CCCCN)NC(C)=O)C(=O)NCC(=O)N[C@H](C(=O)N[C@@H](CCCNC(=N)N)C(=O)N[C@@H](CC(C)C)C(=O)N1CCC[C@H]1C(=O)NCC(=O)N[C@@H](Cc1c[nH]cn1)C(=O)N[C@@H](CCC(N)=O)C(=O)N[C@@H](CCCCN)C(=O)N[C@@H](CCCNC(=N)N)C(=O)N[C@@H](CSSC[C@H](NC(=O)[C@H](CO)NC(C)=O)C(=O)N[C@@H](CCCCN)C(=O)N[C@@H](CCSC)C(=O)N[C@@H](CCC(N)=O)C(=O)N[C@@H](CCC(N)=O)C(N)=O)C(=O)N[C@@H](C)C(=O)N[C@@H](Cc1ccc(O)cc1)C(=O)N[C@@H](CO)C(=O)N[C@@H](CC(C)C)C(=O)N[C@@H](CC(C)C)C(=O)NCC(=O)N[C@@H](CC(C)C)C(=O)N[C@@H](CCCCN)C(=O)N[C@@H](CC(=O)O)C(=O)N[C@@H](CCC(N)=O)C(=O)N[C@H](C(N)=O)C(C)C)C(C)C [S13-SS] (I: Ac-KRIGVRLPGHQKRCAYSLLGLKDQV-NH2 / II: Ac-SCKMQQ-NH2; disulfide I:14-II:2)
SPR binding to Ship2-Sam (RUmax) [1]: significant dose-response signal variations
SPR sensorgrams, saturation ([1]; wider concentration range (Fig. S5b)): does not reach saturation

Ac-GHQKRIAY-NH2 [KRI]
SPR binding to Ship2-Sam (RUmax) [1]: not able to bind Ship2-Sam

Ac-KRIAYKRIAY-NH2 [(KRI)2]
SPR binding to Ship2-Sam (RUmax) [1]: not able to bind Ship2-Sam

Ship2 SAM (from UniProt O15357)
Kd [2]: 750 nM
